The record followed here is ChEMBL document CHEMBL1777728, “Amino-caprolactam γ-secretase inhibitors showing potential for the treatment of Alzheimer's disease” (Bioorg Med Chem Lett, 2011).

The nature of series [1]: Inhibition of gamma-secretase-mediated APP cleavage assessed as amyloid beta40 level after 2 hrs by ELISA. A general note: ELISA stands for enzyme-linked immunosorbent assay.
The nature of series [2]: Inhibition of gamma-secretase-mediated notch cleavage after 2 hrs by ELISA.
A short description of series [3]: Selectivity ratio of IC50 for gamma-secretase-mediated notch cleavage to IC50 gamma-secretase-mediated APP cleavage.
Series [4] has as its system Mus musculus. As to the kind of experiment: Neuroprotective activity in wild type FVB mouse brain assessed as reduction of amyloid beta x-40 level at 100 mg/kg, ip. Type of series: functional. Particulars: route intraperitoneal.
The test system of series [5] is Mus musculus. Briefly: Neuroprotective activity in P-gp KO (MDR1 ab-/-) mouse brain assessed as reduction of amyloid beta x-40 level at 100 mg/kg, ip. Particulars: route intraperitoneal. Type of series: functional.
The test system of series [6] is MDCK. Briefly: Efflux ratio of permeability from basolateral to apical over apical to basolateral side in human MDR1 transfected MDCK cells at 5 uM after 120 mins by LC-MS/MS analysis. Particulars: dog, 2 h. Type of series: ADME, cell-based, Canis lupus familiaris.

In general, IC50 refers to the concentration needed to halve the response being measured. As for `Cc1ccc(CN([C@@H]2CCCCNC2=O)S(=O)(=O)c2ccc(Cl)cc2)s1`, in series [1], the half-inhibitory concentration (IC50) came to 81 nM.

Regarding `O=C(NC1CCCC1)c1ccc(CN([C@@H]2CCCCNC2=O)S(=O)(=O)c2ccc(Cl)cc2)cc1`, the IC50 worked out at 14 nM in series [2] and 23 nM in series [1]. The Ratio IC50 in series [3] stood at 0.6.

On to `Cc1cccc(CN([C@@H]2CCCCNC2=O)S(=O)(=O)c2ccc(Cl)cc2)n1`, for which the figures for the IC50 in series [2] and in series [1] were 9320 nM and 5360 nM, respectively. Also, the Ratio IC50 in series [3] came out at 2.

Take `COc1cc(CN(C2CCCCNC2=O)S(=O)(=O)c2ccc(Cl)cc2)ccc1OCCc1scnc1C` (configuration not stated): the half-inhibitory concentration (IC50) in series [1] turned out to be 1700 nM.

As for `O=C(NCc1ccccc1)c1ccc(CN([C@@H]2CCCCNC2=O)S(=O)(=O)c2ccc(Cl)cc2)cc1`, the IC50 in series [2] is 16 nM; in series [1], 9 nM. Moreover, the Ratio IC50 in series [3] stood at 2.

With `Cn1nnc2cc(CN([C@@H]3CCCCNC3=O)S(=O)(=O)c3ccc(Cl)cc3)ccc21`, the IC50 in series [1] came out at 12 nM.

On to `O=C1NCCCC[C@H]1N(Cc1nccs1)S(=O)(=O)c1ccc(Cl)cc1`, for which the IC50 in series [2] and in series [1] was 1830 nM in each case. For the same compound, the Ratio IC50 in series [3] was 1.

As for `COC(=O)c1ccc(CN([C@@H]2CCCCNC2=O)S(=O)(=O)c2ccc(Cl)cc2)cc1`, the concentration for half-maximal inhibition (IC50) in series [1] was 3 nM.

As for `COc1cc(CN([C@H]2CCCCNC2=O)S(=O)(=O)c2ccc(Cl)cc2)ccc1OCCc1scnc1C`, in series [1], the 50% inhibitory concentration (IC50) came out at 2000 nM.

As to `Cc1ccc(CN([C@@H]2CCCCNC2=O)S(=O)(=O)c2ccc(Cl)cc2)o1`, the IC50 in series [2] came out at 601 nM; in series [1] it was 432 nM. In addition, in series [3], the Ratio IC50 amounted to 1.

As to `CCCNC(=O)c1ccc(CN([C@@H]2CCCCNC2=O)S(=O)(=O)c2ccc(Cl)cc2)cc1`, the half-maximal inhibitory concentration (IC50) was 26 nM in series [2] and 45 nM in series [1]. The Ratio IC50 in series [3] was found to be 0.5.

Broadly, the inhibition in vivo is how much of the control response was suppressed. As for `O=C1NCCCC[C@H]1N(Cc1ccc2snnc2c1)S(=O)(=O)c1ccc(Cl)cc1`, the inhibition in vivo at 100 mg/kg in series [4] is 32%; in series [5], 60%. The 50% inhibitory concentration (IC50) in series [2] was 25 nM; in series [1], 8 nM. In addition, the Ratio IC50 in series [3] worked out at 3. Further, the Ratio in series [6] came out at 2.

As for `COc1ccc(CN([C@@H]2CCCCNC2=O)S(=O)(=O)c2ccc(Cl)cc2)cc1OC`, the half-maximal inhibitory concentration (IC50) in series [1] turned out to be 170 nM.

In the case of `CC(C)(C)CNC(=O)c1ccc(CN([C@@H]2CCCCNC2=O)S(=O)(=O)c2ccc(Cl)cc2)cc1`, the half-inhibitory concentration (IC50) in series [2] stood at 55 nM; in series [1] it was 30 nM. For the same compound, the Ratio IC50 in series [3] was found to be 2.

Consider `Cn1c(CN([C@@H]2CCCCNC2=O)S(=O)(=O)c2ccc(Cl)cc2)cc2ccccc21`, for which the figures for the 50% inhibitory concentration (IC50) in series [2] and in series [1] were 2790 nM and 565 nM, respectively. For the same compound, the Ratio IC50 in series [3] worked out at 5.

With `O=C(Nc1ccccc1)c1ccc(CN([C@@H]2CCCCNC2=O)S(=O)(=O)c2ccc(Cl)cc2)cc1`, the results for the half-maximal inhibitory concentration (IC50) in series [2] and in series [1] were 91 nM and 76 nM, respectively. Besides, the Ratio IC50 in series [3] amounted to 1.

`CC(C)NC(=O)c1ccc(CN([C@@H]2CCCCNC2=O)S(=O)(=O)c2ccc(Cl)cc2)cc1`: the IC50 came to 66 nM in series [2] and 30 nM in series [1]. Further, the Ratio IC50 in series [3] was 2.

As for `COc1cc(CN([C@@H]2CCCCNC2=O)S(=O)(=O)c2ccc(Cl)cc2)ccc1OCCc1scnc1C`, the IC50 in series [1] came to 170 nM.

`O=C1NCCCC[C@H]1N(Cc1ccc2c(c1)OCCO2)S(=O)(=O)c1ccc(Cl)cc1`: the 50% inhibitory concentration (IC50) was determined as 152 nM in series [2] and 9 nM in series [1]. Besides, the Ratio IC50 in series [3] stood at 17. For the same compound, the Ratio in series [6] amounted to 2.7.

With `O=C(NC1CC1)c1ccc(CN([C@@H]2CCCCNC2=O)S(=O)(=O)c2ccc(Cl)cc2)cc1`, the IC50 was determined as 65 nM in series [2] and 31 nM in series [1]. Further, the Ratio IC50 in series [3] was determined as 2.

`O=C1NCCCC[C@H]1N(Cc1cc2ccccc2o1)S(=O)(=O)c1ccc(Cl)cc1`: the values for the concentration for half-maximal inhibition (IC50) in series [2] and in series [1] were 30 nM and 12 nM, respectively. For the same compound, the Ratio IC50 in series [3] came to 2.

With `O=C1NCCCC[C@H]1N(Cc1cc2ccccc2s1)S(=O)(=O)c1ccc(Cl)cc1`, the IC50 in series [2] stood at 46 nM; in series [1], 7 nM. Further, in series [3], the Ratio IC50 was found to be 6.

For `O=C1NCCCC[C@H]1N(Cc1ccc2nccnc2c1)S(=O)(=O)c1ccc(Cl)cc1`, the inhibition in vivo at 100 mg/kg in series [4] came out at 26%; in series [5], 61%. In addition, the values for the half-maximal inhibitory concentration (IC50) in series [2] and in series [1] were 28 nM and 15 nM, respectively. Also, the Ratio IC50 in series [3] amounted to 2. Moreover, in series [6], the Ratio was 1.8.

In the case of `O=C1NCCCC[C@H]1N(Cc1ccc2nsnc2c1)S(=O)(=O)c1ccc(Cl)cc1`, the 50% inhibitory concentration (IC50) is 39 nM in series [2] and 13 nM in series [1]. The Ratio IC50 in series [3] came out at 3. Besides, the Ratio in series [6] came to 2.

Regarding `O=C1NCCCC[C@H]1N(CC1CCc2ccccc2O1)S(=O)(=O)c1ccc(Cl)cc1` (some centres not stated), the IC50 in series [2] is 196 nM; in series [1], 131 nM. In addition, the Ratio IC50 in series [3] was determined as 1.

Take `O=C1NCCCC[C@H]1N(Cc1cnc2ccccc2c1)S(=O)(=O)c1ccc(Cl)cc1`: the IC50 in series [2] is 126 nM; in series [1], 52 nM. In addition, the Ratio IC50 in series [3] turned out to be 2.

Regarding `O=C1NCCCC[C@H]1N(Cc1cnc2ncccc2c1)S(=O)(=O)c1ccc(Cl)cc1`, the IC50 in series [2] is 1050 nM; in series [1], 290 nM. In series [3], the Ratio IC50 was determined as 4.

`O=C(NC1CCC1)c1ccc(CN([C@@H]2CCCCNC2=O)S(=O)(=O)c2ccc(Cl)cc2)cc1`: the values for the half-maximal inhibitory concentration (IC50) in series [2] and in series [1] were 49 nM and 23 nM, respectively. In series [3], the Ratio IC50 turned out to be 2.

Regarding `O=C1NCCCC[C@H]1N(Cc1csnn1)S(=O)(=O)c1ccc(Cl)cc1`, the IC50 in series [2] came to 2120 nM; in series [1] it was 758 nM. The Ratio IC50 in series [3] was 3.

Consider `O=C1NCCCC[C@H]1N(Cc1ccc2ncccc2c1)S(=O)(=O)c1ccc(Cl)cc1`, for which the figures for the inhibition in vivo at 100 mg/kg in series [4] and in series [5] were 20% and 62%, respectively. Moreover, the half-inhibitory concentration (IC50) in series [2] is 4 nM; in series [1], 6 nM. Further, in series [3], the Ratio IC50 is 0.6. The Ratio in series [6] was found to be 1.8.
